Laboratory results: patent US11759412B2, “Personal care compositions with glutathione precursor comprising 4-substituted resorcinols and amino acids” (Conopco, Inc., priority 2016, dated 2023)

Tests used:
Format in all cases: cell-based
Aged Human Keratinocytes = experiment: Glutathione Assay (total glutathione, GSH-GSSG Glo, menadione challenge); conditions: for synergistic increase in GSH synthesis, combination with GAP amino acids vs either alone: resorcinol/test reagent combined with GAP, + menadione
Description: Aged Human Keratinocytes (Cascade Biologics, now ThermoFisher Scientific, Waltham, Mass.) were maintained in Epi Life® medium containing 60 uM calcium chloride and 1% Human Keratinocyte Growth Supplement (both media components from ThermoFisher Scientific) in a humidified incubator with an atmosphere containing 5% CO2 at 37° C. The medium was refreshed every 2-3 days. Subsequently, cells were trypsinized at 90% confluency and seeded at a density of 1×10^4 per well into 96-well plates with white wall and clear bottom. One or two days after seeding, cell medium was replaced with Hank's Balanced Salt Solution (HBSS), and keratinocytes were pre-treated with GAP (or 0.12-0.240 mM sodium hydroxide vehicle control, pH 7.5) alone or in combination with additional test reagents described above or L-cystine esters alone for 1-2 hours. The concentration of all amino acids constituting the GAP mixture used in this assay are designated in the data tables, and fully described in the abbreviations list below.
After one or two hours of pre-treatment with GAP or additional test reagents, alone or in combination, keratinocytes were then challenged with 25 uM menadione (Sigma-Aldrich), a known inducer of oxidative stress. After 18-20 hours, cells were harvested and analyzed for total glutathione levels using a commercially available kit (GSH-GSSG GLo Assay, Promega), a luminescence-based system for the detection and quantification of total glutathione in cultured cells. In summary, after cell treatment, the media was removed and replaced with a cell lysis reagent for 5 minutes at 20-25° C.; note, all remaining steps were also conducted at 20-25° C. Next, a luciferase generation reagent was added to each well and incubated for 30 minutes. Following this step, a luciferin detection reagent was added to each well and plates were incubated for 15 minutes. Finally, plates were then read for luminescence in a FlexStation 3 plate reader (Molecular Devices). Total glutathione levels were calculated after interpolation of glutathione concentrations from a standard curve. Experimental conditions were typically conducted in at least triplicate determinations. Statistical significance was calculated using 1-way ANOVA. Percent protection was calculated by using the calculated glutathione levels from each experiment in the following equation: […]

Human Keratinocytes [1] = experiment: Cell Viability Assay (CCK-8, menadione); conditions: + menadione
Description: Human Keratinocytes (Promocell, Heidelberg, Germany) were maintained in EpiLife® keratinocyte medium containing 60 uM calcium chloride and 1% Human Keratinocyte Growth Supplement (HKGS). The medium was refreshed every other day. Subsequently, cells were trypsinized at 90% confluency and seeded at a density of 2×10^4 per well into 96-well transparent tissue culture plates. On the second day after seeding, cell medium was replaced with treatments as described above in ROS assay section. After 18 hours, […] (CCK-8) reagent (Dojindo, Kumamoto, Japan) was diluted 1:10 in HBSS and incubated with cells for 4 h at 37° C. in a humidified incubator. Optical absorption at 450 nm was measured using a Tecan Safire2 plate reader. Relative viability was calculated with normalization based on the vehicle control treatment, which was set to 100%.
Where indicated, percent protection was calculated as a comparison to menadione alone treatment, using the measured relative absorbance units in the following equation: […]

Human Keratinocytes [2] = experiment: Reactive Oxygen Species (ROS) Assay (CellROX green, menadione); conditions: + menadione; for synergistic decrease in ROS production, combination with GAP amino acids vs either alone: resorcinol/test reagent combined with GAP
Description: Human Keratinocytes (Promocell, Heidelberg, Germany) were maintained in EpiLife® keratinocyte medium containing 60 uM calcium chloride and 1% Human Keratinocyte Growth Supplement (HKGS) in a humidified incubator with an atmosphere containing 5% CO2 at 37° C. The medium was refreshed every other day. Subsequently, cells were trypsinized at 90% confluency and seeded at a density of 1-2×10^4 per well into 96-well plates with black wall and clear bottom. On the second day after seeding, cell medium was replaced with Hank's Balanced Salt Solution (HBSS) with or without menadione (10-25 uM), GAP (typically at 49 uM pyroglutamic acid, 60 uM cystine, 194 uM glycine), GAP vehicle (0.2 mM NaOH, pH 7.5), above-described additional test reagents, or combinations of GAP with additional test reagents or L-cystine esters alone, and incubated for additional 18 hours. For ROS detection, CellROX green (Life Tech, Thermo Fisher Scientific, Rockford, USA) reagent was added into each well to a final concentration of 15-25 uM and incubated for additional 2-4 hours at 37° C. in a humidified incubator. The ROS fluorescence was detected using a Tecan microplate reader (Excitation/Emission=490/525). Relative ROS production was calculated with normalization based on the vehicle control treatment which was set to 100%. Where indicated, percent protection was calculated as a comparison to menadione alone treatment, using the measured relative fluorescent units in the following equation: […]
ROS levels were evaluated together with cell viability because it is possible to get a false negative for ROS if treatment is so toxic, that at the time of assay, cells are dead (and there are no longer any detectable ROS). Decrease in ROS levels is meaningful if cells are still viable.

[3] = Table 2B, resorcinol (BR or IPR) 10 uM + menadione
[4] = Table 2B, resorcinol (BR or IPR) 50 uM + menadione
[5] = Table 2B, resorcinol (BR or IPR) 100 uM + menadione
[6] = Table 3C, MR 10 uM where present
[7] = Table 3A, Olivetol or 3-hydroxytyrosol 10 uM + menadione
[8] = Table 3A, Olivetol or 3-hydroxytyrosol 20 uM + menadione
[9] = Table 3A, Olivetol or 3-hydroxytyrosol 50 uM + menadione
[10] = Table 2F, PER 20 uM where present
[11] = Table 2G, PER 10 uM + menadione
[12] = Table 2G, PER 20 uM + menadione
[13] = Table 2G, PER 50 uM + menadione
[14] = Table 3D, 4-CHMR 10 uM + menadione
[15] = Table 3D, 4-CHMR 20 uM + menadione
[16] = Table 3D, 4-CHMR 50 uM + menadione

Structure (SMILES): CC(C)c1ccc(O)cc1O [IPR, 4-isopropylresorcinol]
- % Protection (improvement vs. vehicle control + menadione) (Aged Human Keratinocytes; [3]): 6%
- Glutathione Synthesis, Mean (uM glutathione) (Aged Human Keratinocytes; [3]): 0.12 µM
- % Protection (improvement vs. vehicle control + menadione) (Aged Human Keratinocytes; [4]): 6%
- Glutathione Synthesis, Mean (uM glutathione) (Aged Human Keratinocytes; [4]): 0.12 µM
- % Protection (improvement vs. vehicle control + menadione) (Aged Human Keratinocytes; [5]): 8%
- Glutathione Synthesis, Mean (uM glutathione) (Aged Human Keratinocytes; [5]): 0.16 µM
- synergistic increase in GSH synthesis, combination with GAP amino acids vs either alone (Aged Human Keratinocytes): synergistic increase

Structure (SMILES): Cc1ccc(O)cc1O [MR, 4-methylresorcinol]
- Cell viability (% of vehicle control) (Human Keratinocytes [1]; [6]): 45.3%
- Mean ROS production (% of vehicle control) (Human Keratinocytes [2]; [6]): 233.5^1%
- synergistic decrease in ROS production, combination with GAP amino acids vs either alone (Human Keratinocytes [2]): did not result

Structure (SMILES): CCCCCc1cc(O)cc(O)c1 [Olivetol, 5-pentylresorcinol]
- % Protection (improvement vs vehicle control + menadione) (Aged Human Keratinocytes; [7]): −1%
- Glutathione Synthesis, Mean (uM glutathione) (Aged Human Keratinocytes; [7]): 0.14 µM
- % Protection (improvement vs vehicle control + menadione) (Aged Human Keratinocytes; [8]): −1%
- Glutathione Synthesis, Mean (uM glutathione) (Aged Human Keratinocytes; [8]): 0.13 µM
- % Protection (improvement vs vehicle control + menadione) (Aged Human Keratinocytes; [9]): −2%
- Glutathione Synthesis, Mean (uM glutathione) (Aged Human Keratinocytes; [9]): 0.11 µM
- synergistic increase in GSH synthesis, combination with GAP amino acids vs either alone (Aged Human Keratinocytes): did not result

Structure (SMILES): CC(c1ccccc1)c1ccc(O)cc1O (stereo not drawn) [PER, 4-(1-phenylethyl)resorcinol]
- % Protection (improvement vs vehicle control + menadione), cell viability (Human Keratinocytes [1]; [10]): 1.09%
- Cell viability (% of control) (Human Keratinocytes [1]; [10]): 62.3%
- % protection (improvement vs vehicle control + menadione), ROS (Human Keratinocytes [2]; [10]): −6.74%
- Mean ROS production (% of vehicle control) (Human Keratinocytes [2]; [10]): 321.5%
- synergistic decrease in ROS production, combination with GAP amino acids vs either alone (Human Keratinocytes [2]): synergistic decrease
- % Protection (improvement vs vehicle control + menadione) (Aged Human Keratinocytes; [11]): −2%
- Glutathione Synthesis, Mean (uM glutathione) (Aged Human Keratinocytes; [11]): 0.12 µM
- % Protection (improvement vs vehicle control + menadione) (Aged Human Keratinocytes; [12]): 3%
- Glutathione Synthesis, Mean (uM glutathione) (Aged Human Keratinocytes; [12]): 0.25 µM
- % Protection (improvement vs vehicle control + menadione) (Aged Human Keratinocytes; [13]): 12%
- Glutathione Synthesis, Mean (uM glutathione) (Aged Human Keratinocytes; [13]): 0.50 µM
- synergistic increase in GSH synthesis, combination with GAP amino acids vs either alone (Aged Human Keratinocytes): not observed

Structure (SMILES): Oc1ccc(CC2CCCCC2)c(O)c1 [Sample 4-CHMR, 4-(cyclohexylmethyl)resorcinol]
- % Protection (Aged Human Keratinocytes; [14]): −4.6%
- Glutathione Synthesis, Mean (uM glutathione) (Aged Human Keratinocytes; [14]): 0.07 µM
- % Protection (Aged Human Keratinocytes; [15]): −6.2%
- Glutathione Synthesis, Mean (uM glutathione) (Aged Human Keratinocytes; [15]): 0.026 µM
- % Protection (Aged Human Keratinocytes; [16]): −1.7%
- Glutathione Synthesis, Mean (uM glutathione) (Aged Human Keratinocytes; [16]): 0.147 µM
- synergistic increase in GSH synthesis, combination with GAP amino acids vs either alone (Aged Human Keratinocytes): did not result
